Data taken from patent US10577333B2, “Tetrazole derivatives as cytochrome P450 inhibitors” (C26 Bioscience AB, priority 2016, dated 2020).

Experiments:
[1] = test system: atRA responsive genes CYP26B1 and RARβ; test: QRT-PCR of atRA responsive genes CYP26B1 and RARβ mRNA in human aortic smooth muscle cells; assay type: cell-based; settings: AOSMCs
Description: FIG. 1 illustrates the induction of CYP26B1 and RARβ mRNA at different concentrations of test compound: A) CYP26 and B) RARβ in human smooth muscle cells treated with 0.001-10 μM of the test compound. For all experiments n=3; *P≤0.05, **P<0.01 and ***P<0.001.
FIG. 2 are diagrams of CYP26B1 and RARβ mRNA expression in human smooth muscle cells upon treatment with atRA and/or test compound: A) CYP26B1 and B) RARβ mRNA expression in human smooth muscle cells treated with either 1 μm of atRA, test compound or combination of both for 48 h. The experiment was performed in three independent runs; *P≤0.05, **P<0.01 and ***P<0.001.
Human aortic smooth muscle cells (AOSMCs) were treated with different concentrations of a compound of Formula II (0.001-10 μM; FIGS. 1A and B). AOSMCs were incubated with different concentration (0.001-10 μM) of compound according to Formula II, or DMSO as control, at 37 C for 24 h. Total RNA were isolated by using E.Z.N.A total RNA kit (VWR Stockholm Sweden) and cDNA synthesis was performed through high capacity reverse transcription kits (applied Biosystems, Foster City, Calif., USA) according to manufacturers instructions.
Next, human AOSMCs were treated with either 1 μM of atRA or a compound of Formula II alone, or a combination of both for 48 h. The purification and analysis procedures were as described above. […] The results strongly indicate that the compound of Formula II increases retinoid signalling.

[2] = target: T1, purified CYP26B1 (Homo sapiens, UniProt Q9NR63); test: Enzymatic assay on purified CYP26B1 with oxidoreductase and NADPH, [3H] atRA, HPLC; assay type: biochemical; settings: 5 μM, 5 nM CYP26B1, 50 nM [3H] atRA, 1 mM NADPH, 10 sec to 10 min
T1 construct: made in house
T1 sequence (Q9NR63 1-512): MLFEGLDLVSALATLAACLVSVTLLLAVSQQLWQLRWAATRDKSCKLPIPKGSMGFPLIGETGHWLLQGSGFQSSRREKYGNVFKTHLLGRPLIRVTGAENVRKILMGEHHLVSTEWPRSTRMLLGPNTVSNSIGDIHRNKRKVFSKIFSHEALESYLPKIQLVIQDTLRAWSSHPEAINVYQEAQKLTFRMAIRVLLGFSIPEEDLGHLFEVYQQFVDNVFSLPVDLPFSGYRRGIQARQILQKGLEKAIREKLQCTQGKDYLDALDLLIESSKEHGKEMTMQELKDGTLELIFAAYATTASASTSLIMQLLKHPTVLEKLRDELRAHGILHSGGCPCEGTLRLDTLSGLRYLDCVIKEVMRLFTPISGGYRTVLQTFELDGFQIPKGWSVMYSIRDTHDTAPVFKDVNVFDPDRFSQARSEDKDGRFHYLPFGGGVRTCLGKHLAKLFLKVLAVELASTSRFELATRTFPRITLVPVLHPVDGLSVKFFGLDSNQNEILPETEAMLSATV
Description: FIG. 4 is a graph showing results from an enzymatic assay carried out on purified CYP26B1, incubated with 5 or 25 μM of the test compound in the presence of oxidoreductase and NADPH, at different time points. The control experiment was performed without initiation with NADPH. For all experiments n=3.
To investigate the efficiency of the compound of Formula II in blocking CYP26B1, CYP26B1 was purified and subsequently incubated with 5 and 25 μM of compound of Formula II for different time points (10 s to 10 min). This experiment thus excludes any other possible metabolic route that potentially could have been present in the cellular experiments. Purified CYP26B1 was stored in buffer containing 50 mM K2HPO4, 0.5 mM EDTA and 20% of glycerol, pH 7.4 at −80° C. The assay was performed as follows: 5 nM of CYP26B1 and 10 nM oxidoreductase was preincubated. 5 or 25 μM of the compound of Formula II and 50 nM [^3H] atRA were added followed by addition of 1 mM NADPH in total volume of 100 μl of Kpi buffer and incubated for 10 sec to 10 min. The reaction was stopped by adding 100 μl absolute ethanol. The sample was subsequently extracted and analysed by HPLC. For control, experiments were performed as above but without initiation of the reaction by NADPH.

[3] = target: T2, CYP26B1 (Homo sapiens, UniProt Q9NR63); test: [3H] atRA catabolism in CYP26B1 transfected COS-1 cells, HPLC analysis; assay type: cell-based; design: expressed in transfected cells; host or cells: COS-1; settings: 1 or 10 μM for 1 h, then [3H] atRA for 2 h
T2 sequence (Q9NR63 1-512): T1 sequence (Q9NR63 1-512)
Description: (§1) FIG. 3 illustrates quantification of atRA levels by HPLC in human smooth muscle cells and transfected COS-1 cells: A) Human smooth muscle cells were treated with 1 or 10 μM of the new CYP26 inhibitor for 1 h followed by a 4 h [^3H] atRA incubation. B) COS-1 transfected by 1 μg/μL of CYP26B1 and incubated with 1 or 10 μM of test compound followed by a 2 h [^3H] atRA incubation. For all experiments n=3; *P<0.05, **P<0.01 and ***P<0.001.
To investigate the specificity of our candidate to inhibit CYP26B1-mediated catabolism of atRA, COS-1 cells were transfected with CYP26B1 or an empty vector (in which case no CYP26B1 can be produced). COS-1 was maintained in Dulbecco's Modified Eagle's Medium (DMEM; Life Technologies, Carsbad, Calif., USA) and transfection of COS-1 was performed in 12 well plates using 1 μg/μl of CYP26B1 and 2 μl of lipofectamin 2000 in 250 μl of Opti-MEM (Opti-MEM: Modified Eagle's Minimum Essential Media; Life Technologies, Carlsbad, Calif., USA). The mixture was incubated at room temperature for 20 minutes and added to the plate for 4 h followed by addition of growth medium for 24 h. The next day, the medium was replaced by fresh DMEM and treated by 1 or 10 μM of the compound according to Formula II for 1 h followed by exposure to 1 μCl/ml of [^3H] atRA for 2 h, and subsequent HPLC analysis.

[4] = target: T2, CYP26B1; test: [3H] atRA catabolism in human smooth muscle cells, HPLC analysis; assay type: cell-based; design: endogenous in cells; host or cells: human aortic smooth muscle cells (AOSMC); settings: AOSMCs, 1 or 10 μM for 1 h, then [3H] atRA for 4 h
Description: as §1
AOSMCs were seeded out in density of 2×10^5 in 6 well plates incubated with two different concentrations (1 and 10 μM) of compound according to Formula II for 1 h followed by exposure to 1 μCl/ml of [^3H] atRA for 4 h. Cells were thereafter washed using BSA 1 mg/ml of PBS followed by HPLC analysis.

[5] = 1 μM in combination with atRA, 48 h
[6] = 0.001-10 μM, 24 h, normalized to Cyclophilin A, vs DMSO control

RA degradation by purified CYP26B1 [2]: efficiently inhibited RA degradation
degradation of atRA in the cells [4]: greatly reduces the degradation of atRA
SMILES: Cn1nnnc1SCCC(=O)NCc1ccc(C(=O)O)cc1 [compound of Formula II]
effect of atRA on induction of CYP26B1 mRNA [1, 5]: significantly increased the effects of atRA on the induction
effect of atRA on induction of RARβ mRNA [1, 5]: significantly increased the effects of atRA on the induction
expression of CYP26B1 mRNA [1, 6]: significantly induced in a dose-dependent manner
expression of RARβ mRNA [1, 6]: significantly induced in a dose-dependent manner
levels of atRA [3]: significantly increased the levels of atRA
